“And” between values parts separate entries of the source, which are not always exact repeats. Identical values can stand only once. “Also recorded” adds a separate entry of the source.
Key:
Assay type in all cases: in vivo
[1] = Conditioned avoidance response (shuttle box); conditions: for Number of Conditioned Avoidance Responses: CMC 1% 16.7 ± 0.3
Protocol: Conditioned avoidance response by trained animals in a conventional shuttle box procedure was determined after oral administration of Compounds 1 and 4.

[2] = Postural tonus in restrained animals; conditions: for reduction in postural tonus: more pronounced effect of compound 4 especially at 30 mg/kg
Text: The final observations were concerned with the influence of the test compounds on postural tonus. Evaluationg postural tonus in the animals kept in restraint cages was somewhat difficult. It was possible to judge this aspect by pulling the hind quarters of the animals out of the cage and observing whether the animals was capable of returning spontaneously to its position inside the cage, which control animals were able to do immediately.

[3] = Reduction in motor activity between 60 and 90 minutes; conditions: for Reduction in Motor Activity Between 60 and 90 Minutes: significance NS (comp. 1), 0.002 (comp. 4); for changes in motor activity / voluntary motility: in vivo
[4] = Conditioned emotional response (CER), tone paired with foot shock
Protocol: Conditioned emotional response (CER) in test animals was conventionally determined by a tone paired with a foot shock which was presented to hungry animals trained to press a lever for intermittent food reinforcement. After a few such pairings, the presence of the tone alone was sufficient to disrupt the lever pressing behavior. CER is considered a model of behavior anxiety in animals. […] Thus, a 1.25 mg/kg os of compounds 1 and 4 respectively produced about a 350 and 630% increase in CER while a 5 mg/kg os of compounds 1 and 4 respectively produced about 920 and 1600% increase.

dorsal hippocampus = test: Hippocampal after-discharge (stimulation of dorsal hippocampus); conditions: 7.5 mg/kg intragastric; for Duration of Hippocampal After-Discharge: individual animals
Protocol: (§1) The test animals for this study were also prepared according to the technique described by Monnier and Gangloff (infra B, page 30) and the animals were kept in restraint cages in a relatively soundproof room.
(§2) The activity of test compounds 1 and 4 was assessed in identical groups of test animals for each compound, with identical numbers of animals for hippocampal after-discharges and for amygdaloid after-discharges. A dose of 7.5 mg/kg of each test compound was adminstered by the intragastric route. In each animal, after-discharges were triggered every 45 minutes after the administration of a test compound.
(§3) The stimulation consisted of a series of waves with a duration of 3 m sec., delivered at a frequency of 40 c/sec., with 5 seconds as the total duration of the stimulation. The shocks were delivered by a Neurovar neurostimulator (Alvar Electronic), coupled to a CRC cathode oscilloscope (type OC 343). Cerebral electric activity was recorded by REEGA MINI HUIT electroencephalograph (Alvar Electronic).

[5] = test system: posterior amygdaloid complex; test: Amygdaloid after-discharge (stimulation of posterior amygdaloid complex); conditions: 7.5 mg/kg intragastric; for Duration of Amygdaloid After-Discharge: individual animals
Protocol: as §1, §2, §3

[6] = Convulsions induced by pentamethylenetetrazol in rats; conditions: for ED50: Rattus norvegicus, oral, protection against pentamethylenetetrazol, read-out: ED50 (and C.L.) (converted)
Protocol: The method utilized was according to the method published by Everett and Richards (1944) and Banziger (1965). The pentamethylenetetrazol was given subcutaneously (125 mg/kg) and the test compounds were given orally suspended in a 1% carboxymethyl cellulose solution.

Structure (SMILES)	% Decrease (conditioned avoidance responses) ([1]; 5 mg/kg oral) [%]	Number of Conditioned Avoidance Responses ([1]; 5 mg/kg oral)	% Decrease (conditioned avoidance responses) ([1]; 10 mg/kg oral) [%]	Number of Conditioned Avoidance Responses ([1]; 10 mg/kg oral)	reduction in postural tonus [2]	Reduction in Motor Activity Between 60 and 90 Minutes ([3]; 1 mg/kg)	Reduction in Motor Activity Between 60 and 90 Minutes ([3]; 3 mg/kg) [%]	changes in motor activity / voluntary motility [3]	increase in CER ([4]; 1.25 mg/kg os) [%]	increase in CER ([4]; 5 mg/kg os)	effect on duration of hippocampal after-discharge (dorsal hippocampus)	Duration of Hippocampal After-Discharge (dorsal hippocampus; 45 Mins.)	Duration of Hippocampal After-Discharge (dorsal hippocampus; 90 Mins.)	Duration of Hippocampal After-Discharge (dorsal hippocampus; 135 Mins.)	Duration of Hippocampal After-Discharge (dorsal hippocampus; 180 Mins.)	Duration of Hippocampal After-Discharge (dorsal hippocampus; 225 Mins.)	Duration of Hippocampal After-Discharge (dorsal hippocampus; 270 Mins.)	effect on amygdaloid after-discharge [5]	Duration of Amygdaloid After-Discharge ([5]; 45 Mins.)	Duration of Amygdaloid After-Discharge ([5]; 90 Mins.)	other results
C#CCN1C(=O)CN=C(c2ccccc2Cl)c2cc(Cl)ccc21 [Compound 4, 7-chloro-2,3-dihydro-5-(2-chlorophenyl)-1-propargyl-1,H-1,4-benzodiazepine-2-one]	-44	9.2 ± 1.4	-85	2.5 ± 1.5	slightly more pronounced effect	-69%	-82	reduces voluntary motility	~630	~1600%	no apparent effect on the duration of the paroxysm	10 s and 20 s and 18 s and 14 s and 12 s	7 s and 16 s and 20 s and 15 s and 11 s	6 s and 15 s and 17.5 s and 13.5 s and 14 s	8 s and 10.5 s and 18 s and 15 s	9 s and 19 s and 18.5 s and 13 s and 10 s	10 s and 22 s and 27 s and 13 s and 16 s	lasting inhibitory effect	29 s and 43 s and 30 s and 35 s	32 s and 46 s and 33 s and 40 s and 16 s	animals with no attempt to resume previous posture ([2]; 30 mg/kg, at 21/2 hours): one animal out of every three; Duration of Amygdaloid After-Discharge ([5]; 135 Mins.): 35 s and 27 s and 40 s and 26 s; Duration of Amygdaloid After-Discharge ([5]; 180 Mins.): 33 s and 29 s and 48 s; Duration of Amygdaloid After-Discharge ([5]; 225 Mins.): 37 s and 35 s and 34 s and 41 s; Duration of Amygdaloid After-Discharge ([5]; 270 Mins.): 38 s and 42 s and 37 s and 39 s and 50 s; % Protected Animals ([6]; 6 mg/kg/os, pentamethylenetetrazol 125 mg/kg s.c.): 20%; % Protected Animals ([6]; 8.5 mg/kg/os, pentamethylenetetrazol 125 mg/kg s.c.): 60%; % Protected Animals ([6]; 12 mg/kg/os, pentamethylenetetrazol 125 mg/kg s.c.): 70%; ED50 [6]: 8.5 mg/kg; % Protected Animals ([6]; Time 90 min.): 37%; % Protected Animals ([6]; Time 120 min.): 18%; % Protected Animals ([6]; Time 180 min.): 0%; % Protected Animals ([6]; Time 240 min.): 0%
C#CCN1C(=O)CN=C(c2ccccc2)c2cc(Cl)ccc21 [Compound 1, 7-chloro-2,3-dihydro-5-phenyl-1-propargyl-1H-1,4-benzodiazepin-2-one]	-12	14.5 ± 0.7	-19	13.4 ± 0.7	slight reduction in the tonus	+19%	-20	does not produce changes in motor activity	~350	about 920%	markedly increased the duration of after-discharges	25 s and 14 s and 23 s and 18 s	27 s and 21 s and 25 s and 11 s and 23 s	27 s and 16 s and 26 s and 19 s and 25 s	25 s and 23 s and 24 s and 27 s	29 s and 26 s and 25 s and 23 s and 34 s	23 s and 26 s and 21 s and 40 s	lasting inhibitory effect; also recorded: slightly more pronounced	15 s and 0 s and 35 s and 22 s	17 s and 0 s and 27 s	% Decrease (conditioned avoidance responses) ([1]; 20 mg/kg oral): -17%; Number of Conditioned Avoidance Responses ([1]; 20 mg/kg oral): 13.7 ± 0.9; % Decrease (conditioned avoidance responses) ([1]; 40 mg/kg oral): -44%; Number of Conditioned Avoidance Responses ([1]; 40 mg/kg oral): 9.3 ± 1.5; activity in reducing conditioned avoidance responses compared with Compound 2 ([1]; in vivo): less active than Compound 2; activity in antagonizing tone-induced disruption compared with Compound 4 ([4]; in vivo): about twice as active as Compound 4; Duration of Amygdaloid After-Discharge ([5]; 135 Mins.): 46 s and 0 s and 37 s; Duration of Amygdaloid After-Discharge ([5]; 180 Mins.): 17 s and 0 s and 34 s; Duration of Amygdaloid After-Discharge ([5]; 225 Mins.): 42 s and 46 s and 0 s and 35 s; Duration of Amygdaloid After-Discharge ([5]; 270 Mins.): 45 s and 62 s and 0 s and 30 s; % Protected Animals ([6]; 5 mg/kg/os, pentamethylenetetrazol 125 mg/kg s.c.): 10%; % Protected Animals ([6]; 10 mg/kg/os, pentamethylenetetrazol 125 mg/kg s.c.): 50%; % Protected Animals ([6]; 20 mg/kg/os, pentamethylenetetrazol 125 mg/kg s.c.): 80%; ED50 [6]: 10.6 mg/kg; % Protected Animals ([6]; Time 90 min.): 48%; % Protected Animals ([6]; Time 120 min.): 46%; % Protected Animals ([6]; Time 180 min.): 37%; % Protected Animals ([6]; Time 240 min.): 10%; duration of protection against pentamethylenetetrazol compared with compounds 3 or 4 ([6]; rat, in vivo): protects against pentamethylenetetrazol for longer periods of time than compounds 3 or 4

— patent US4313943A, “7-Chloro-2,3-dihydro-5-phenyl-1-propargyl-1H-1,4-benzodiazepine-2-one, and a pharmaceutical composition thereof” (priority 1972, dated 1982)
